The supplement of paper PMC8253809

What was measured:
DIPGX29 [1] = H3.3 K27M diffuse intrinsic pontine glioma line; assay: EC50 (inflection of fitted growth-inhibition curve) (log10 M)
Procedure, shortened: (§1)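 Patient-derived pHGG/DIPG cell lines and astrocyte controls were grown on 1% Geltrex-coated 384-well plates and exposed by pin tool to a 10-point threefold dilution series (mean top concentration 35 μM), in triplicate. Exposure was 7 days (iAstro 3 days) at 37 °C, 5% CO2. CellTiter-Glo luminescence was log2-transformed, normalised per plate to % activity between negative (solvent) and positive control wells, and pooled. EC50 and maximal response (yFin) come from the lowest-AICc three- or four-parameter log-logistic fit.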

DIPGX9 [2] = diffuse intrinsic pontine glioma line; assay: as above
Procedure, shortened: as §1

HABS [3] = astrocyte control; assay: as above
Procedure, shortened: as §1

HGGX2 [4] = paediatric high-grade glioma line; assay: as above
Procedure, shortened: as §1

HGGX39 [5] = paediatric high-grade glioma line; assay: as above
Procedure, shortened: as §1

HGGX42 [6] = H3.3 G34R paediatric high-grade glioma line; assay: as above
Procedure, shortened: as §1

HGGX6 [7] = H3.3 G34R paediatric high-grade glioma line; assay: as above
Procedure, shortened: as §1

SUDIPGXIX [8] = diffuse intrinsic pontine glioma line; assay: as above
Procedure, shortened: as §1

SUDIPGXVII [9] = diffuse intrinsic pontine glioma line; assay: as above
Procedure, shortened: as §1

SUDIPGXXI [10] = diffuse intrinsic pontine glioma line; assay: as above
Procedure, shortened: as §1

iAstro [11] = astrocyte control; assay: as above
Procedure, shortened: as §1

DIPGX29 [12] = assay: maximal growth inhibition (yFin) relative to DMSO / staurosporine; higher = more efficacious
Procedure, shortened: as §1

DIPGX9 [13] = assay: as above
Procedure, shortened: as §1

HABS [14] = assay: as above
Procedure, shortened: as §1

HGGX2 [15] = assay: as above
Procedure, shortened: as §1

HGGX39 [16] = assay: as above
Procedure, shortened: as §1

HGGX42 [17] = assay: as above
Procedure, shortened: as §1

HGGX6 [18] = assay: as above
Procedure, shortened: as §1

SUDIPGXIX [19] = assay: as above
Procedure, shortened: as §1

SUDIPGXVII [20] = assay: as above
Procedure, shortened: as §1

SUDIPGXXI [21] = assay: as above
Procedure, shortened: as §1

iAstro [22] = assay: as above
Procedure, shortened: as §1

DIPGX29 [23] = assay: area under dose-response curve of % growth inhibition (log2 RLU vs DMSO / staurosporine), 1e-11 to 1e-4 M (% x log10 M); higher = more growth inhibition
Procedure, shortened: (§2)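 On 1% Geltrex-coated 384-well plates, patient-derived pHGG/DIPG cell lines and astrocytes were treated in triplicate across 10 threefold dilutions (mean top concentration 35 μM) for 7 days, with iAstro treated for 3 days, at 37 °C, 5% CO2. Log2-transformed CellTiter-Glo luminescence was normalised per plate to % activity between solvent and positive controls. Area under the curve was obtained by the trapezoid rule from a log-logistic fit, or from a smoothing spline when that fit failed.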

DIPGX37 [24] = H3.3 K27M diffuse intrinsic pontine glioma line; assay: as above
Procedure, shortened: as §2

DIPGX7 [25] = H3.3 K27M diffuse intrinsic pontine glioma line; assay: as above
Procedure, shortened: as §2

DIPGX9 [26] = assay: as above
Procedure, shortened: as §2

HABS [27] = assay: as above
Procedure, shortened: as §2

HGGX2 [28] = assay: as above
Procedure, shortened: as §2

HGGX39 [29] = assay: as above
Procedure, shortened: as §2

HGGX42 [30] = assay: as above
Procedure, shortened: as §2

HGGX6 [31] = assay: as above
Procedure, shortened: as §2

SUDIPGIV [32] = diffuse intrinsic pontine glioma line; assay: as above
Procedure, shortened: as §2

SUDIPGVI = diffuse intrinsic pontine glioma line; assay: as above
Procedure, shortened: as §2

SUDIPGXIII = diffuse intrinsic pontine glioma line; assay: as above
Procedure, shortened: as §2

SUDIPGXIX [33] = assay: as above
Procedure, shortened: as §2

SUDIPGXVII [34] = assay: as above
Procedure, shortened: as §2

SUDIPGXXI [35] = assay: as above
Procedure, shortened: as §2

iAstro [36] = assay: as above
Procedure, shortened: as §2

DIPGX37 [37] = assay: EC50 (inflection of fitted growth-inhibition curve) (log10 M)
Procedure, shortened: as §1

DIPGX7 [38] = assay: as above
Procedure, shortened: as §1

SUDIPGIV [39] = assay: as above
Procedure, shortened: as §1

DIPGX37 [40] = assay: maximal growth inhibition (yFin) relative to DMSO / staurosporine; higher = more efficacious
Procedure, shortened: as §1

DIPGX7 [41] = assay: as above
Procedure, shortened: as §1

SUDIPGIV [42] = assay: as above
Procedure, shortened: as §1

| SMILES | EC50 (log10 M) (DIPGX29 [1]) | EC50 (log10 M) (HGGX39 [5]) | EC50 (log10 M) (HGGX42 [6]) | EC50 (log10 M) (HGGX6 [7]) | EC50 (log10 M) (SUDIPGXXI [10]) | maximal growth inhibition (DIPGX29 [12]) | maximal growth inhibition (HGGX39 [16]) | maximal growth inhibition (HGGX42 [17]) | maximal growth inhibition (HGGX6 [18]) | maximal growth inhibition (SUDIPGXXI [21]) | area under dose-response curve (DIPGX29 [23]) | area under dose-response curve (DIPGX37 [24]) | area under dose-response curve (DIPGX7 [25]) | area under dose-response curve (DIPGX9 [26]) | area under dose-response curve (HABS [27]) | area under dose-response curve (HGGX2 [28]) | area under dose-response curve (HGGX39 [29]) | area under dose-response curve (HGGX42 [30]) | area under dose-response curve (HGGX6 [31]) | area under dose-response curve (SUDIPGIV [32]) | other results |
| --- | --- | --- | --- | --- | --- | --- | --- | --- | --- | --- | --- | --- | --- | --- | --- | --- | --- | --- | --- | --- | --- |
| C#Cc1cccc(Nc2ncnc3cc(OCCOC)c(OCCOC)cc23)c1 [ERLOTINIB] | -4.82 | -4.77 | -5.09 | -4.65 | -5.65 | 25.7% | 40.4% | 31.5% | 30.5% | 103% | 28.1 | 51.3 | 44.7 | 68.4 | 86.4 | 37.1 | 34.2 | 50 | 22.9 | 53 | EC50 (log10 M) (DIPGX9 [2]): -5.14; EC50 (log10 M) (HABS [3]): -4.84; EC50 (log10 M) (HGGX2 [4]): -5.13; EC50 (log10 M) (SUDIPGXIX [8]): -5.24; EC50 (log10 M) (SUDIPGXVII [9]): -5.32; EC50 (log10 M) (iAstro [11]): -5.17; maximal growth inhibition (DIPGX9 [13]): 53.6%; maximal growth inhibition (HABS [14]): 80.2%; maximal growth inhibition (HGGX2 [15]): 32.7%; maximal growth inhibition (SUDIPGXIX [19]): 62.6%; maximal growth inhibition (SUDIPGXVII [20]): 25.8%; maximal growth inhibition (iAstro [22]): 27.5%; area under dose-response curve (SUDIPGVI): 33.8; area under dose-response curve (SUDIPGXIII): 9.16; area under dose-response curve (SUDIPGXIX [33]): 78.6; area under dose-response curve (SUDIPGXVII [34]): 44.5; area under dose-response curve (SUDIPGXXI [35]): 178; area under dose-response curve (iAstro [36]): 29.7 |
| CC(C(O)c1ccc(O)cc1)N1CCC(Cc2ccccc2)CC1 (stereo not given) [IFENPRODIL] | -4.85 | -4.86 | -5.06 | -4.95 | -4.85 | 29.5% | 36.6% | 61.8% | 20.6% | 75.3% | 39.3 | 48.4 | 57.3 | 18.8 | 0.152 | 8.88 | 44.1 | 66.8 | 25.9 | 29.8 | EC50 (log10 M) (DIPGX37 [37]): -4.82; EC50 (log10 M) (DIPGX7 [38]): -4.83; EC50 (log10 M) (SUDIPGIV [39]): -4.66; maximal growth inhibition (DIPGX37 [40]): 59.3%; maximal growth inhibition (DIPGX7 [41]): 45.7%; maximal growth inhibition (SUDIPGIV [42]): 45.1%; area under dose-response curve (SUDIPGVI): 18.5; area under dose-response curve (SUDIPGXIII): 27.3; area under dose-response curve (SUDIPGXIX [33]): 3.16; area under dose-response curve (SUDIPGXVII [34]): 17.3; area under dose-response curve (SUDIPGXXI [35]): 85.1; area under dose-response curve (iAstro [36]): 13.3 |
